{
  "source": "patent US20110152343A1",
  "about": "“PROTEASE INHIBITORS AND BROAD-SPECTRUM ANTIVIRAL” (Functional Genetics, Inc., priority 2009, published 2011)",
  "test_system": "RSV",
  "assay": "RSV infection, timing of administration (production of virus particles)",
  "data": [
    {"smiles": "N=C(N)c1ccc2oc(/C=C/c3nc4ccc(C(=N)N)cc4[nH]3)cc2c1", "note": "[NSC 369723]", "values": [
      {"measurement": "inhibition of the production of virus particles (pfu/ml)", "setting": "administration by roughly 18 hours after infection with RSV", "value": "much reduced or lost"},
      {"measurement": "inhibition of the production of virus particles (pfu/ml)", "setting": "administration from about 6-12 hours after infection with RSV", "value": "moderately inhibited"}
    ]}
  ]
}
